Test results published in the supplement of paper PMC10307832.

Columns and labels:
Assay in all cases: relative viability (nuclei count vs DMSO), 5 days (fraction); higher = more cells survive
CAP-232 + Crizotinib = compound: C[C@H]([C@@H](C(=O)N)NC(=O)[C@@H]1CSSC[C@@H](C(=O)N[C@H](C(=O)N[C@@H](C(=O)N[C@H](C(=O)N1)CCCCN)CC2=CNC3=CC=CC=C32)CC4=CC=C(C=C4)O)NC(=O)[C@@H](CC5=CC=CC=C5)N)O [CAP-232] + C[C@@H](Oc1cc(-c2cnn(C3CCNCC3)c2)cnc1N)c1c(Cl)ccc(F)c1Cl [Crizotinib] (partner 1 µM)
Summary of the method: (§1)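 Lung cancer cell lines were pin-tool dosed in 1536-well plates on the day after seeding, with either a lone drug or a fixed anchor-drug dose plus five library-drug doses (not always all listed) in √10 steps. Nuclei were counted on 4× images after 5 days. Relative viability is the ratio of treated-well to vehicle-well nuclei counts, with each value a median of duplicate plates.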

CAP-232 + Phenformin = compound: C[C@H]([C@@H](C(=O)N)NC(=O)[C@@H]1CSSC[C@@H](C(=O)N[C@H](C(=O)N[C@@H](C(=O)N[C@H](C(=O)N1)CCCCN)CC2=CNC3=CC=CC=C32)CC4=CC=C(C=C4)O)NC(=O)[C@@H](CC5=CC=CC=C5)N)O [CAP-232] + N=C(N)NC(=N)NCCc1ccccc1 [Phenformin] (partner 250 µM)
Summary of the method: as §1

CAP-232 + OSI-027 = compound: C[C@H]([C@@H](C(=O)N)NC(=O)[C@@H]1CSSC[C@@H](C(=O)N[C@H](C(=O)N[C@@H](C(=O)N[C@H](C(=O)N1)CCCCN)CC2=CNC3=CC=CC=C32)CC4=CC=C(C=C4)O)NC(=O)[C@@H](CC5=CC=CC=C5)N)O [CAP-232] + COc1cccc2cc(-c3nc([C@H]4CC[C@H](C(=O)O)CC4)n4ncnc(N)c34)[nH]c12 [OSI-027] (partner 0.5 µM)
Summary of the method: as §1

CAP-232 + Foretinib = compound: C[C@H]([C@@H](C(=O)N)NC(=O)[C@@H]1CSSC[C@@H](C(=O)N[C@H](C(=O)N[C@@H](C(=O)N[C@H](C(=O)N1)CCCCN)CC2=CNC3=CC=CC=C32)CC4=CC=C(C=C4)O)NC(=O)[C@@H](CC5=CC=CC=C5)N)O [CAP-232] + COc1cc2c(Oc3ccc(NC(=O)C4(C(=O)Nc5ccc(F)cc5)CC4)cc3F)ccnc2cc1OCCCN1CCOCC1 [Foretinib] (partner 0.25 µM)
Summary of the method: as §1

CAP-232 + Alpelisib = compound: C[C@H]([C@@H](C(=O)N)NC(=O)[C@@H]1CSSC[C@@H](C(=O)N[C@H](C(=O)N[C@@H](C(=O)N[C@H](C(=O)N1)CCCCN)CC2=CNC3=CC=CC=C32)CC4=CC=C(C=C4)O)NC(=O)[C@@H](CC5=CC=CC=C5)N)O [CAP-232] + Cc1nc(NC(=O)N2CCC[C@H]2C(N)=O)sc1-c1ccnc(C(C)(C)C(F)(F)F)c1 [Alpelisib] (partner 2 µM)
Summary of the method: as §1

| Cell Line | relative viability (CAP-232 + Crizotinib; first compound 0.4 µM) | relative viability (CAP-232 + Crizotinib; first compound 1.265 µM) | relative viability (CAP-232 + Crizotinib; first compound 4 µM) | relative viability (CAP-232 + Crizotinib; first compound 12.65 µM) | relative viability (CAP-232 + Phenformin; first compound 0.4 µM) | relative viability (CAP-232 + Phenformin; first compound 1.265 µM) | relative viability (CAP-232 + Phenformin; first compound 4 µM) | relative viability (CAP-232 + Phenformin; first compound 12.65 µM) | relative viability (CAP-232 + OSI-027; first compound 0.4 µM) | relative viability (CAP-232 + OSI-027; first compound 1.265 µM) | relative viability (CAP-232 + OSI-027; first compound 4 µM) | relative viability (CAP-232 + OSI-027; first compound 12.65 µM) | relative viability (CAP-232 + Foretinib; first compound 0.4 µM) | relative viability (CAP-232 + Foretinib; first compound 1.265 µM) | relative viability (CAP-232 + Foretinib; first compound 4 µM) | relative viability (CAP-232 + Foretinib; first compound 12.65 µM) | relative viability (CAP-232 + Alpelisib; first compound 0.4 µM) | relative viability (CAP-232 + Alpelisib; first compound 1.265 µM) | relative viability (CAP-232 + Alpelisib; first compound 4 µM) | relative viability (CAP-232 + Alpelisib; first compound 12.65 µM) |
| --- | --- | --- | --- | --- | --- | --- | --- | --- | --- | --- | --- | --- | --- | --- | --- | --- | --- | --- | --- | --- |
| LK-2 | 0.216 | 0.251 | 0.181 | 0.199 | 0.47 | 0.302 | 0.389 | 0.415 | 0.197 | 0.18 | 0.231 | 0.175 | 1.4 | 1.22 | 1.54 | 1.19 | 1.02 | 1.15 | 1.2 | 1.75 |
| LOU-NH91 | 0.748 | 0.76 | 0.921 | 0.705 | 0.725 | 0.752 | 0.769 | 0.487 | 0.756 | 0.775 | 0.72 | 0.675 | 0.994 | 0.903 | 0.86 | 0.919 | 0.738 | 0.771 | 0.699 | 0.58 |
| LU99A | 0.486 | 0.652 | 0.513 | 0.561 | 0.866 | 0.751 | 0.839 | 0.8 | 0.263 | 0.267 | 0.276 | 0.313 | 0.811 | 0.787 | 0.977 | 0.736 | 0.515 | 0.517 | 0.471 | 0.497 |
| LXF-289 | 0.843 | 0.803 | 0.784 | 0.841 | 0.508 | 0.519 | 0.512 | 0.554 | 0.824 | 0.721 | 0.805 | 0.741 | 0.985 | 0.965 | 1.01 | 0.995 | 1.13 | 1.08 | 1.1 | 1.02 |
| NCI-H23 | 0.532 | 0.444 | 0.462 | 0.362 | 0.84 | 0.813 | 0.833 | 0.678 | 0.64 | 0.529 | 0.687 | 0.487 | 0.926 | 0.883 | 0.718 | 0.802 | 0.848 | 0.743 | 0.714 | 0.668 |
| NCI-H322M | 1.01 | 0.903 | 0.841 | 0.778 | 0.873 | 0.709 | 0.759 | 0.862 | 0.569 | 0.528 | 0.52 | 0.437 | 1.05 | 0.962 | 0.952 | 0.985 | 0.778 | 0.753 | 0.709 | 0.755 |
| NCI-H358 | 0.435 | 0.426 | 0.473 | 0.511 | 0.319 | 0.295 | 0.278 | 0.315 | 0.665 | 0.864 | 0.71 | 0.664 | 0.678 | 0.841 | 0.686 | 0.563 | 0.508 | 0.821 | 0.868 | 0.789 |
| NCI-H441 | 0.711 | 0.636 | 0.639 | 0.734 | 0.82 | 0.897 | 0.982 | 0.864 | 0.527 | 0.683 | 0.602 | 0.686 | 0.895 | 1.03 | 0.7 | 1.07 | 0.757 | 0.912 | 0.788 | 0.843 |
| NCI-H460 | 0.924 | 1.1 | 1.05 | 0.534 | 0.634 | 0.529 | 0.567 | 0.307 | 0.767 | 0.739 | 0.825 | 0.275 | 1.02 | 1.1 | 1.22 | 0.622 | 0.512 | 0.541 | 0.595 | 0.211 |
| NCI-H520 | 0.822 | 0.66 | 0.888 | 0.56 | 0.529 | 0.52 | 0.619 | 0.461 | 0.258 | 0.31 | 0.304 | 0.3 | 0.734 | 0.98 | 0.92 | 0.47 | 0.945 | 0.93 | 1.08 | 0.568 |
| NCI-H596 | 1.15 | 0.988 | 0.89 | 1.05 | 0.679 | 0.604 | 0.899 | 0.653 | 0.767 | 0.726 | 0.884 | 0.633 | 0.863 | 0.739 | 0.985 | 0.827 | 0.558 | 0.512 | 0.497 | 0.507 |
| NCI-H647 | 1.28 | 1.01 | 1.05 | 0.871 | 0.434 | 0.561 | 0.637 | 0.401 | 0.576 | 0.775 | 0.739 | 0.577 | 1.15 | 1.06 | 1.36 | 0.749 | 1.18 | 1.16 | 1.37 | 0.761 |
| NCI-H650 | 0.7 | 0.767 | 0.795 | 0.494 | 0.443 | 0.416 | 0.472 | 0.413 | 0.619 | 0.506 | 0.602 | 0.543 | 1.01 | 1 | 0.969 | 0.926 | 0.997 | 1.3 | 0.997 | 0.825 |
| NCI-H661 | 1 | 0.947 | 1.05 | 1.13 | 0.262 | 0.268 | 0.278 | 0.227 | 0.757 | 0.692 | 0.753 | 0.545 | 0.986 | 0.951 | 1.05 | 1.02 | 0.594 | 0.382 | 0.913 | 0.596 |
